{
  "source": "patent US12606552B2",
  "about": "“Bifunctional compound, preparation method therefor, and use thereof” (SUZHOU KINTOR PHARMACEUTICALS, INC., priority 2020, dated 2026)",
  "key": {"[1]": {"system": "flank sebaceous glands of golden hamster", "assay": "In vivo efficacy on acne in female golden hamsters (growth of sebaceous plaques induced by testosterone propionate)", "settings": "skin smear once a day, 21 days", "text": "Activity Assay Example 7: In Vivo Efficacy of Compounds on Acne in Female Golden Hamsters\n1. Test object: The flank sebaceous glands of golden hamster are androgen-dependent organs, and testosterone propionate (male hormone) promotes the enlargement of sebaceous glands. This experiment is mainly to study the inhibitory effect of CB-03-01 (positive drug), Flutamide (positive drug) and the compound on sebaceous gland enlargement in female golden hamster acne model (androgen dependence), to further observe the in vivo drug efficacy of the compound, to provide the basis for clinical trials of androgen-induced acne symptoms.\nAndrogen (Testosterone Propionate-TP); CB-03-01 (Clascoterone, CAS No. 19608-29-8); □ Flutamide (Flutamide, CAS No. 13311-84-7); compound A46 of the present invention.\n2.2 Experimental Animals, See Table 4 for Details\n2.3 Administration Vehicle: Acetone. 3. Experimental Design\nIn this experiment, from 72 female golden hamsters, according to the size and body weight of sebaceous glands, golden hamsters were evenly distributed to each group, 6 mice per group, a total of 7 groups, and they were administered continuously for 21 days.\nAccording to the protocol in the table, […] of drug was administered each time, it was evenly smeared on the sebaceous glands, and administered once a day.\nAnimal grouping and status observation: Before grouping, the body weight was weighed, and the sebaceous glands on both sides were shaved for the observation of the size of sebaceous glands. Animals were observed twice a day in the morning and afternoon during the administration period. On the 21st day after administration, the size of sebaceous glands and the body weight of animals were observed and recorded.\nThe size of the sebaceous glands is expressed by the area, and the vernier caliper recorded its long side (a) and short side (b), and the area of the sebaceous glands (S) is obtained from the formula for calculating the area of a rectangle. In model group and administration group, ΔS=S−S(vehicle). Growth inhibition rate (%)=(ΔS(acetone testosterone group)−ΔS (administration group))/ΔS(acetone testosterone group)*100%."}, "[2]": {"assay": "Distribution of compounds in sebaceous glands and blood in golden hamsters", "format": "in vivo", "settings": "for mean drug concentration in sebaceous glands: after 8 h", "experimental": "Activity Assay Example 9: Distribution of Compounds in Sebaceous Glands and Blood in Golden Hamsters\n6 male golden hamsters were selected for the experiment and divided into two groups (three in each group). The drug was administered by a single smear route. All animals fasted overnight before administration.\n1.1 Experimental Method 1.1.1 Dosage of Administration\nA46 was weighed into a 50 ml centrifuge tube, added with mixed solvent (75% ethanol, 15% glyceryl tri(2-ethylhexanoate) and 10% glycerol), vortexed and heated at 60° C. until A46 was completely dissolved. A46 was prepared at a concentration of 30 mg/mL, 100 mg/mL, and stored at room temperature in the dark.\nIn group 1, the dosage for smear administration was 1.2 mg, corresponding to an administration volume of 30 mL/kg. In group 2, the dosage for smear administration was 4 mg, and the administration volume was 100 mL/kg.\n1.1.2 Method of Administration\nDuring the experiment, the 2 sebaceous glands of all the hamsters were coated with the corresponding medicinal solution (the dosage was about 0.02 mL).\n1.1.3 Observation of Animal Status\nImmediately after administration, whether the animals have abnormal reactions was observed. If there were no abnormal reactions, the animals were observed twice during the experiment. If any abnormal reactions were found, the number of observations was recorded and increased in time until the animals returned to normal, or the experiment ended.\n1.1.4 Sample Collection and Storage\nAll experimental animals were fasted overnight before administration, and blood was collected at corresponding time points into blood collection tubes containing heparin sodium anticoagulant after administration. After collection of whole blood, the blood collection tube was immediately shook gently and placed on ice, then centrifuged (4° C., 4000 rpm, 10 min) to collect the supernatant plasma sample (plasma volume ≥100 μL), and the supernatant plasma sample was stored at −80° C. before analysis. Plasma sample was collected for 8 h."}},
  "data": [
    {"molecule": "Cc1ncsc1-c1ccc(CNC(=O)[C@@H]2C[C@@H](O)CN2C(=O)[C@@H](NC(=O)COCCCCOc2ccc(-c3ccc(N4C(=S)N(c5ccc(C#N)c(C(F)(F)F)c5F)C(=O)C4(C)C)cn3)cc2)C(C)(C)C)cc1", "note": "[Compound A46]", "values": [
      {"measurement": "The inhibition rate of the growth of sebaceous plaques (%)", "setting": "[1]; 100 μg (0.4%) + testosterone propionate 12 μg", "value": 19.24, "unit": "%"},
      {"measurement": "The inhibition rate of the growth of sebaceous plaques (%)", "setting": "[1]; 200 μg (0.8%) + testosterone propionate 12 μg", "value": 35.20, "unit": "%"},
      {"measurement": "The inhibition rate of the growth of sebaceous plaques (%)", "setting": "[1]; 400 μg (1.6%) + testosterone propionate 12 μg", "value": 49.54, "unit": "%"},
      {"measurement": "The inhibition rate of the growth of sebaceous plaques (%)", "setting": "[1]; 800 μg (3.2%) + testosterone propionate 12 μg", "value": 51.61, "unit": "%"},
      {"measurement": "mean drug concentration in sebaceous glands", "setting": "[2]; group 1, single smear 1.2 mg (30 mg/mL)", "value": 13513, "unit": "ng/mL"},
      {"measurement": "mean drug concentration in sebaceous glands", "setting": "[2]; group 2, single smear 4 mg (100 mg/mL)", "value": 24223, "unit": "ng/mL"},
      {"measurement": "maximum blood concentration", "setting": "[2]; group 2, single smear 4 mg (100 mg/mL), one out of 3 animals, sampling 0.25-8 h", "value": 10.6, "unit": "ng/mL"},
      {"measurement": "blood concentration (below the detection limit)", "setting": "[2]; group 2, single smear 4 mg (100 mg/mL), remaining 2 animals, sampling 0.25-8 h", "value": "< 2", "unit": "ng/mL"}
    ]}
  ]
}
